Laboratory results published in PubChem BioAssay AID330 (DTP/NCI, 2004).
“And” between values parts separate entries of the source, which are not always exact repeats. Equal entries are not always repeated. Toxic doses and inconclusive results are not listed. How the source made its calls: active means survival T/C of 150% or more; inactive means T/C below 125% in these data. Square brackets hold non-standard residues; d marks the D form. Peptide text beside a SMILES is read from it. * marks the point of attachment. Cbz = O=C(OCc1ccccc1)*; Nva = CCC[CH](N)C(=O)O

Tested on: P388 leukemia ip, CD2F1 mice, survival T/C
Assay: NCI In Vivo Anticancer Drug Screen. Data for tumor model P388 Leukemia (intraperitoneal) in CD2F1 (CDF1) mice
Settings: endpoint: median survival time, higher = longer survival
Procedure, shortened: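 Mice carrying the transplanted tumor received test compound or vehicle. Survival was recorded in each group, and the value is the treated-group measurement divided by that of the vehicle-treated control group.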

[1] = dose: 50.0 mg/kg/injection, schedule: Q01DX009 (ip), vehicle: saline with Tween-80
[2] = dose: 100.0 mg/kg/injection, schedule: Q01DX009 (ip), vehicle: saline with Tween-80
[3] = dose: 100.0 mg/kg/injection, schedule: Q01DX001 (ip), vehicle: saline with Tween-80
[4] = dose: 200.0 mg/kg/injection, schedule: Q01DX001 (ip), vehicle: saline with Tween-80
[5] = dose: 400.0 mg/kg/injection, schedule: Q01DX001 (ip), vehicle: saline with Tween-80
[6] = dose: 50.0 mg/kg/injection, schedule: Q01DX005 (ip), vehicle: Klucel (hydroxypropylcellulose) (HPC)
[7] = dose: 100.0 mg/kg/injection, schedule: Q01DX005 (ip), vehicle: Klucel (hydroxypropylcellulose) (HPC)
[8] = dose: 50.0 mg/kg/injection, schedule: Q04DX003 (ip), vehicle: saline with Tween-80
[9] = dose: 100.0 mg/kg/injection, schedule: Q04DX003 (ip), vehicle: saline with Tween-80
[10] = dose: 200.0 mg/kg/injection, schedule: Q04DX003 (ip), vehicle: saline with Tween-80
[11] = dose: 50.0 mg/kg/injection, schedule: Q01DX009 (ip), vehicle: Klucel (hydroxypropylcellulose) (HPC)
[12] = dose: 100.0 mg/kg/injection, schedule: Q01DX009 (ip), vehicle: Klucel (hydroxypropylcellulose) (HPC)
[13] = dose: 200.0 mg/kg/injection, schedule: Q01DX009 (ip), vehicle: Klucel (hydroxypropylcellulose) (HPC)
[14] = dose: 100.0 mg/kg/injection, schedule: Q04DX003 (ip), vehicle: suspension in saline
[15] = dose: 200.0 mg/kg/injection, schedule: Q04DX003 (ip), vehicle: suspension in saline
[16] = dose: 50.0 mg/kg/injection, schedule: Q01DX005 (ip), vehicle: saline with Tween-80
[17] = dose: 100.0 mg/kg/injection, schedule: Q01DX005 (ip), vehicle: saline with Tween-80
[18] = dose: 200.0 mg/kg/injection, schedule: Q01DX005 (ip), vehicle: saline with Tween-80
[19] = dose: 12.5 mg/kg/injection, schedule: Q01DX009 (ip), vehicle: saline with Tween-80
[20] = dose: 25.0 mg/kg/injection, schedule: Q01DX009 (ip), vehicle: saline with Tween-80

Measured: T/C

COc1ccc2c(c1OC)C(=O)OC2c1cc(Br)c(O)c(C2OC(=O)c3c2ccc(OC)c3OC)c1 (configuration not stated)
inactive: [1] 90 % of control | [2] 86 % of control | dose: 100.0 mg/kg/injection, schedule: Q04DX003 (ip), vehicle: saline 87 % of control | dose: 400.0 mg/kg/injection, schedule: Q04DX003 (ip), vehicle: saline 87 % of control

C[N+](C)(C)N=P(O)(N[N+](C)(C)C)Oc1ccccc1 (configuration not stated)
inactive: dose: 60.0 mg/kg/injection, schedule: Q01DX005 (ip), vehicle: saline 95 % of control | dose: 120.0 mg/kg/injection, schedule: Q01DX005 (ip), vehicle: saline 100 % of control | dose: 240.0 mg/kg/injection, schedule: Q01DX005 (ip), vehicle: saline 95 % of control

CC(C(O)CO)n1cnc2c(NCC(O)CO)ncnc21 (configuration not stated)
inactive: [3] 101 % of control | [4] 107 % of control | [5] 100 % of control

CC(C)Cn1c(C(C)C)nc([N+](=O)[O-])c1Sc1ncn[nH]1
inactive: dose: 25.0 mg/kg/injection, schedule: Q01DX005 (ip), vehicle: Klucel (hydroxypropylcellulose) (HPC) 108 % of control | [6] 108 % of control and 118 % of control | [7] 123 % of control

O=[N+]([O-])c1ccc(NN=NCCCl)cc1
inactive: dose: 12.5 mg/kg/injection, schedule: Q01DX009 (ip), vehicle: distilled water + Tween-80 109 % of control

CC(C)(C)c1ccc(N)c(C(O)(C(F)(F)F)C(F)(F)F)c1
inactive: dose: 30.0 mg/kg/injection, schedule: Q01DX005 (ip), vehicle: saline with Tween-80 100 % of control and 90 % of control

COC(=O)C(Cc1cnc[nH]1)NC(=O)C(Cc1c[nH]c2ccccc12)NC(=O)OC(C)(C)C (configuration not stated)
inactive: dose: 12.5 mg/kg/injection, schedule: Q01DX009 (ip), vehicle: other 100 % of control | dose: 25.0 mg/kg/injection, schedule: Q01DX009 (ip), vehicle: other 96 % of control | dose: 50.0 mg/kg/injection, schedule: Q01DX009 (ip), vehicle: other 96 % of control | dose: 100.0 mg/kg/injection, schedule: Q01DX009 (ip), vehicle: other 95 % of control | dose: 200.0 mg/kg/injection, schedule: Q01DX009 (ip), vehicle: other 91 % of control

CC1(C)COC(CC2CCCCC2)=N1
inactive: [1] 104 % of control | [8] 100 % of control | [2] 100 % of control | [9] 104 % of control | [10] 90 % of control

COc1cc(C2(c3ccc(O)c(OC)c3)CCCCC2)ccc1O
inactive: [11] 100 % of control | [12] 100 % of control | [13] 100 % of control

O=C(O)c1cccc(C(=O)O)c1Sc1ccccc1
inactive: [3] 103 % of control | [4] 100 % of control | [5] 94 % of control

CCOC(=O)C1=NN2c3ccccc3OCC2C1 (configuration not stated)
inactive: dose: 50.0 mg/kg/injection, schedule: Q04DX003 (ip), vehicle: suspension in saline 99 % of control | [14] 101 % of control | [15] 100 % of control

CCOC(=O)C1=C(CC)NN=C(C)C1
inactive: [16] 105 % of control | [17] 103 % of control | [18] 100 % of control

Oc1c(CN2CCCCC2)ccc2cccnc12
inactive: dose: 0.78 mg/kg/injection, schedule: Q01DX009 (ip), vehicle: saline with Tween-80 107 % of control and 92 % of control | dose: 1.56 mg/kg/injection, schedule: Q01DX009 (ip), vehicle: saline with Tween-80 99 % of control and 97 % of control | dose: 3.12 mg/kg/injection, schedule: Q01DX009 (ip), vehicle: saline with Tween-80 107 % of control | dose: 6.25 mg/kg/injection, schedule: Q01DX009 (ip), vehicle: saline with Tween-80 99 % of control and 110 % of control and 122 % of control | [19] 99 % of control and 106 % of control and 108 % of control | [20] 113 % of control | [1] 113 % of control

C[CH2][Sn]1([CH2]C)[O]C2C(O)OC(CO)C(O)C2[O]1 (configuration not stated)
inactive: dose: 1.56 mg/kg/injection, schedule: Q04DX003 (ip), vehicle: saline 107 % of control and 120 % of control | dose: 3.12 mg/kg/injection, schedule: Q04DX003 (ip), vehicle: saline 107 % of control and 120 % of control | dose: 6.25 mg/kg/injection, schedule: Q04DX003 (ip), vehicle: saline 114 % of control | dose: 12.5 mg/kg/injection, schedule: Q04DX003 (ip), vehicle: saline 116 % of control

COc1ccc(Oc2c(OC)cc(NCc3ccc(CN)cc3)c3ncccc23)cc1
inactive: [19] 110 % of control | [20] 109 % of control | [1] 109 % of control

COc1cc(/C=C/C(=O)NCCCCN)ccc1O
inactive: dose: 60.0 mg/kg/injection, schedule: Q01DX005 (ip), vehicle: saline with Tween-80 105 % of control | dose: 120.0 mg/kg/injection, schedule: Q01DX005 (ip), vehicle: saline with Tween-80 101 % of control | dose: 240.0 mg/kg/injection, schedule: Q01DX005 (ip), vehicle: saline with Tween-80 95 % of control

C=CC1=C(C)C2=NC1=CC1=NC(=CC3=C(C)C4=C(O)C(C(=O)O)C(=C5NC(=C2)C(C)C5CCC(=O)O)C4=N3)C(CC)=C1C (configuration not stated)
inactive: dose: 50.0 mg/kg/injection, schedule: Q01DX005 (ip), vehicle: suspension in saline 98 % of control | dose: 100.0 mg/kg/injection, schedule: Q01DX005 (ip), vehicle: suspension in saline 103 % of control | dose: 200.0 mg/kg/injection, schedule: Q01DX005 (ip), vehicle: suspension in saline 98 % of control

Cc1coc2c1CCC(C)C2 (configuration not stated)
inactive: [19] 92 % of control | [20] 107 % of control | [1] 100 % of control and 110 % of control

c1cc2c(c(-c3nccc4c3CCCC4)n1)CCCC2
inactive: [16] 109 % of control | [17] 109 % of control | [18] 93 % of control

COc1cccc(C2c3cc4c(cc3OC(C)(N3CCCC3)C2C)OCO4)c1OC (configuration not stated)
inactive: dose: 60.0 mg/kg/injection, schedule: Q01DX005 (ip), vehicle: Klucel (hydroxypropylcellulose) (HPC) 99 % of control | dose: 120.0 mg/kg/injection, schedule: Q01DX005 (ip), vehicle: Klucel (hydroxypropylcellulose) (HPC) 88 % of control

CCOC(=O)C1=C(C)O/C(=C\c2cccc(C(F)(F)F)c2)C1=O
inactive: [16] 108 % of control | [17] 109 % of control

O=C(Nc1cccc2c1C(=O)c1cccc(Nc3cccc4c3C(=O)c3cccc(NC(=O)c5ccccc5)c3C4=O)c1C2=O)c1ccccc1
inactive: [16] 101 % of control and 94 % of control | [17] 88 % of control and 92 % of control | [18] 93 % of control

c1ccc2c(c1)CCc1ccccc1C2NC1=NCCO1
inactive: dose: 12.5 mg/kg/injection, schedule: Q04DX003 (ip), vehicle: saline with Tween-80 90 % of control | dose: 25.0 mg/kg/injection, schedule: Q04DX003 (ip), vehicle: saline with Tween-80 90 % of control | [8] 86 % of control

CCC(c1ccccc1)c1noc(CCN(CC)CC)n1 (configuration not stated)
inactive: [11] 101 % of control | [12] 99 % of control | [13] 113 % of control

CCCC(NC(=O)OCc1ccccc1)C(=O)NC(Cc1ccccc1)C(=O)O (configuration not stated) (Cbz-[Nva]-Phe-OH; configuration not given here)
inactive: [6] 108 % of control | [7] 106 % of control | dose: 200.0 mg/kg/injection, schedule: Q01DX005 (ip), vehicle: Klucel (hydroxypropylcellulose) (HPC) 100 % of control

Cc1cccc(C(=O)/C=C2/CCCN2C)c1
inactive: [9] 110 % of control | [10] 93 % of control

OCCNC(=S)Nc1ccccc1
inactive: dose: 7.5 mg/kg/injection, schedule: Q01DX009 (ip), vehicle: saline with Tween-80 104 % of control | dose: 15.0 mg/kg/injection, schedule: Q01DX009 (ip), vehicle: saline with Tween-80 100 % of control

CSC(/C=C1\C=Cc2ccccc2N1C)=N\S(=O)(=O)c1ccc(N)cc1
inactive: dose: 25.0 mg/kg/injection, schedule: Q04DX002 (ip), vehicle: saline with Tween-80 107 % of control | dose: 50.0 mg/kg/injection, schedule: Q04DX002 (ip), vehicle: saline with Tween-80 100 % of control | dose: 100.0 mg/kg/injection, schedule: Q04DX002 (ip), vehicle: saline with Tween-80 102 % of control

O=C1CCC(C(Sc2ccccc2)Sc2ccccc2)C1 (configuration not stated)
inactive: [11] 110 % of control | [12] 106 % of control | [13] 93 % of control

CNC(=O)CC(=O)NC
inactive: [14] 93 % of control | [15] 100 % of control | dose: 400.0 mg/kg/injection, schedule: Q04DX003 (ip), vehicle: suspension in saline 95 % of control
